Consider four compounds from ChEMBL document CHEMBL1147390, “The structure of palominol by interpretation of two-dimensional NMR shift correlation experiments: isolation and structure determination of isopalominol” (J Nat Prod, 1993).

Converted amounts (≈) assume the structure as drawn. The source made the active and inactive calls. The calls are words filed in the database; no cut-off is given here.

The subject of assay [1] is Escherichia coli. As to the kind of experiment: Antimicrobial activity against Escherichia coli at 10 ug/disk. The assay is classed as functional, organism-based.
For assay [2], the system named is Staphylococcus aureus. As to the kind of experiment: Antimicrobial activity against Staphylococcus aureus at 10 ug/disk. Format: functional, organism-based.
Assay [3] relates to HCT-116. As to the kind of experiment: Cytotoxicity against human HCT116 cells. Format: functional, cell-based.
Assay [4] relates to Escherichia coli. In words: Antimicrobial activity against Escherichia coli at 5 ug/disk. Format: functional, organism-based.
The subject of assay [5] is Staphylococcus aureus. In words: Antimicrobial activity against Staphylococcus aureus at 5 ug/disk. Format: functional, organism-based.
Assay [6] deals with Escherichia coli. As to the kind of experiment: Antimicrobial activity against Escherichia coli at 1 ug/disk. Format: functional, organism-based.
Assay [7] relates to Staphylococcus aureus. In words: Antimicrobial activity against Staphylococcus aureus at 1 ug/disk. The assay is classed as functional, organism-based.

In general, IC50 refers to the concentration at which inhibition is half-maximal. High values mean a need for much substance, low ones inhibition by little substance. For `C/C1=C\C[C@]2(C)CC=C(C(C)(C)O)[C@H]2CC/C(C)=C/CC1` [PALOMINOL], the result in assay [1], in assay [2], in assay [4], in assay [5], in assay [6] and in assay [7] was inactive. In addition, inhibition in assay [3] was half-maximal at 10 µg/mL (≈ 34.7 µM) (IC50).
As to `CC(C)=C1C(=O)C[C@@]2(C)C/C=C(\C)CC/C=C(\C)CC[C@H]12` [DOLABELLANE], the outcome in assay [1], in assay [2], in assay [4], in assay [5], in assay [6] and in assay [7] was inactive. The compound also gave a 50% inhibitory concentration (IC50) in assay [3] of 10 µg/mL (≈ 34.9 µM).
For the compound `CC(C)=C1[C@H]2CC/C(C)=C/CC/C(C)=C/C[C@]2(C)C[C@@H]1O` (relative stereo), the outcome in assay [1], in assay [2], in assay [4], in assay [5], in assay [6] and in assay [7] was inactive. Moreover, 9 µg/mL (≈ 31.2 µM) corresponded to half-maximal inhibition in assay [3] (IC50).
Take `CC(C)=C1[C@H](O)C[C@@]2(C)C/C=C(\C)CC/C=C(\C)CC[C@H]12` (relative stereo) [ISOPALOMINOL]: the outcome in assay [1], in assay [2], in assay [4], in assay [5], in assay [6] and in assay [7] was inactive. Also, in assay [3], the IC50 was found to be 30 µg/mL (≈ 104 µM).
